Experimental data published in patent publication US7067500B2, “Betaines as adjuvants to susceptibility testing and antimicrobial therapy” (priority 1997, dated 2006).
Where “and” joins values, the source holds several entries; their conditions need not be identical. Equal entries are not always repeated. Entries after “also recorded” stand apart in the source; their conditions may differ. Structures can show the parent of a compound that is named as a salt.

Legend:
[1] = tested on: M. tuberculosis complex isolates ATCC 27294 and 571/573-BAL; assay: CB-18 titration, BACTEC 12B growth curves; format: cell-based, Mycobacterium tuberculosis; details: for CB-18 concentration at which growth was completely shut down / CB-18 concentration at which growth was impacted to a minor degree: absence of antibiotics
[2] = tested on: M. tuberculosis isolates (Table 8); assay: MTB isolates vs. antibiotic screen in the presence and absence of CB-18; details: CB-18 17 μg/ml
[3] = tested on: M. fortuitum complex isolates ATCC 6841 and 495-JHH; assay: CB-18 titration, BACTEC 12B growth curves; format: cell-based; details: M. fortuitum 495-JHH
[4] = tested on: M. tuberculosis isolates ATCC 27294 and 571/573-BAL; assay: CB-18 and TMA-18 comparison, BACTEC 12B growth curves; format: cell-based, Mycobacterium tuberculosis
Procedure: If the mechanism of CB-18's action was similar to that of the quaternary salts (i.e., generally deleterious), then some delay would be anticipated. For example, if the CB-18 effect was a consequence of the surface active property of the detergent, then disruption of cellular function would not only have nonspecific long term consequences, but would also be independent of the isolate. In an effort to examine the similarity in the mechanism, CB-18 was assayed in parallel with trimethyloctadecylammonium bromide (TMA-18 (Aldrich, Milwaukee, Wis., Cat.# 35,924-6): made as a 100× stock in 1:1, water:isopropanol similar to that described for CB-18 in Example 1). The experimental design is outlined in FIG. 6.
In this experiment both ATCC 27294 and 571/573-BAL were cultivated on 7H11-selective media, and then serially diluted in NALC/citrate to 10,000×. The planting solution (i.e., the final dilution (50,000×)) was manufactured by diluting into either buffer, 0.5 mM CB-18, or 0.1 mM TMA-18 (all concentrations represent the final detergent concentration in the planting solution). […] The final concentration of CB-18 during incubation was approximately 17 μg/ml. The final concentration of TMA-18 during incubation was approximately 3.4 μg/ml. […] FIGS. 7A–7C show one experiment wherein ATCC 27294 cells were planted in the different solutions described above, and FIGS. 8A–8C show a parallel experiment wherein 571/573-BAL cells were planted in the same series.

[5] = tested on: M. tuberculosis isolates ATCC 27294 and 571/573-BAL; assay: Mycobacterial susceptibility testing (proportion method criteria) with CB-18 and P-cax; format: cell-based, Mycobacterium tuberculosis
[6] = tested on: M. avium complex isolates ATCC 25291 and 802-BAL; assay: CB-18 titration, BACTEC 12B growth curves; format: cell-based; details: MAC isolate 802-BAL; CB-18 alone (7–27 μg/ml tested)
[7] = tested on: M. tuberculosis isolate 571/573-BAL; assay: Detergent screen for induced susceptibility, BACTEC 12B growth curves; format: cell-based, Mycobacterium tuberculosis; details: for effect on growth characteristics: 571/573-BAL
[8] = tested on: M. tuberculosis isolates ATCC 27294 and 571/573-BAL; assay: Processing in CB-18 vs. planting in CB-18, BACTEC 12B growth curves
[9] = tested on: M. tuberculosis isolates ATCC 27294 and 571/573-BAL; assay: CB-18 vs. EDTA, BACTEC 12B growth curves; format: cell-based, Mycobacterium tuberculosis
[10] = ATCC 27294, presence of antibiotics

CCCCCCCCCCCCCCCCCC[N+](C)(C)CCCC(=O)[O-] [CB-18, N-(3-carboxypropyl)-N,N-dimethyl-1-octadecanaminium, inner salt]
CB-18 concentration at which the isolate was viable ([1]; 571/573-BAL, CB-18 alone): 13 µg/mL
CB-18 concentration at which growth was completely shut down ([1]; 571/573-BAL): 27 µg/mL
CB-18 concentration at which growth was impacted to a minor degree ([1]; 571/573-BAL): 13 µg/mL
CB-18 concentration at which growth was absent ([1]; 571/573-BAL, presence of antibiotics): 13 µg/mL
CB-18 concentration at which growth was completely shut down ([1]; ATCC 27294): 54 µg/mL
CB-18 concentration at which growth was impacted to a minor degree ([1]; ATCC 27294): 27 µg/mL
CB-18 concentration at which growth was affected to a minor degree [1, 10]: 13 µg/mL
CB-18 concentration at which growth was nonexistent [1, 10]: 27 µg/mL
CB-18 concentration causing no alteration in growth ([1]; ATCC 27294 and 571/573-BAL, absence of antibiotics (FIGS. 10A and 11A)): 3 to 7 µg/mL
CB-18 induced sensitivity to antibiotics tested ([2]; 040-TBR): affected by CB-18 to some degree; also recorded: Minor CB-18 induced sensitivity to most antibiotics
effect of CB-18 on cax sensitivity (degree of exacerbation) ([2]; 040-TBR, P/cax): significantly affected by the presence of CB-18; also recorded: tested, however, cax sensitivity significantly
CB-18 induced sensitivity to antibiotics tested ([2]; 52-96-BOL): affected by CB-18 to some degree; also recorded: Minor CB-18 induced sensitivity to most antibiotics
effect of CB-18 on cax sensitivity (degree of exacerbation) ([2]; 52-96-BOL, P/cax): significantly affected by the presence of CB-18; also recorded: tested, however, cax sensitivity significantly
CB-18 induced sensitivity to antibiotics tested ([2]; 57-96-BOL (MDR)): exacerbated in the presence of CB-18; also recorded: moderate CB-18 induced sensitivity to most
effect of CB-18 on cax sensitivity ([2]; 061-TBR, P/cax): exacerbated by CB-18. Strain is INH resistant
CB-18 induced sensitivity to antibiotics tested ([2]; 512-JHH): Minor CB-18 induced sensitivity to most antibiotics
CB-18 induced sensitivity to antibiotics tested ([2]; 535-BAL): unaffected by CB-18 at this concentration
effect of CB-18 on cax sensitivity ([2]; 535-BAL, P/cax): cax sensitivity was independent of CB-18
CB-18 induced sensitivity to antibiotics tested ([2]; 538-JHH): Minor CB-18 induced sensitivity to most antibiotics
CB-18 induced sensitivity to antibiotics tested ([2]; 571-BAL): remarkable induction of susceptibility for all drugs tested; also recorded: Dramatic CB-18 induced sensitivity
CB-18 induced sensitivity to antibiotics tested ([2]; 573-BAL): remarkable induction of susceptibility for all drugs tested; also recorded: Dramatic CB-18 induced sensitivity
effect of CB-18 on cax sensitivity ([2]; 896-BAL, P/cax): slightly exacerbated by CB-18. Strain is multi
effect of CB-18 on cax sensitivity ([2]; ATCC 27294, P/cax (ceftriaxone 8 μg/ml)): minor delays; also recorded: exacerbated by CB-18
CB-18 induced sensitivity to antibiotics tested ([2]; ATCC 27294, PANTA, P/caz, P/cfp, P/cax, P/cft): little or no difference; also recorded: Minimal, if any, CB-18 induced sensitivity to
CB-18 concentration at which the isolate was viable / able to grow to some degree ([3]; CB-18 alone): 109 µg/mL
CB-18 concentration at which growth was affected to some degree ([3]; combined with cefoxitin): 13 µg/mL
CB-18 concentration at which growth was completely inhibited ([3]; combined with cefoxitin): 27 µg/mL
effect on growth ([4]; 571/573-BAL, 17 μg/ml CB-18, R.F., PANTA and P/cax): delays in all conditions became obvious
effect on growth ([4]; 571/573-BAL, 17 μg/ml CB-18 with P/cax): dramatic delay
effect on growth ([4]; ATCC 27294, 17 μg/ml CB-18 in PANTA alone): minor delays
effect on growth ([4]; ATCC 27294, 17 μg/ml CB-18 with P/cax): significant delays
CB-18 concentration at which the isolate would have been reported as susceptible ([5]; 571/573-BAL, 10×-dilution (111,000 ± 17,900 cfu), in the presence of P-cax): 60 µg/mL and 30 µg/mL
CB-18 concentration at which the isolate would have been reported as susceptible ([5]; 571/573-BAL, 100×-dilution (11,100 ± 1,790 cfu), in the presence of P-cax): 15 µg/mL
CB-18 concentration at which the isolate would have been reported as susceptible ([5]; ATCC 27294, 10×-dilution (62,800 ± 5,700 cfu), in the presence of P-cax): 60 µg/mL
CB-18 concentration at which the isolate would have been deemed susceptible ([5]; ATCC 27294, 100×-dilution (6,280 ± 570 cfu), in the presence of P-cax): 30 µg/mL
growth of isolates ([5]; both isolates, high input (>1×10^5 cfu), 30 μg/ml CB-18): grew unimpeded during the first week
CB-18 concentration at which viability falls off [6]: not affected at the test concentrations; also recorded: Viability is unaffected at levels tested
effect on growth characteristics ([7]; CB-18 (17 μg/ml) combined with antibiotics (PANTA, P/cax)): synergistically deleterious
effect on growth characteristics ([7]; CB-18 alone (17 μg/ml, R.F.)): had an impact on the growth characteristics
CB-18 effect in the methods of the invention ([7]; carboxybetaines tested): show the CB-18 effect
effect on growth characteristics ([8]; 571/573-BAL, 90 minute exposure to CB-18 at 383 μg/ml, planted in buffer): no apparent effect on growth characteristics
CB-18 concentration in the culture bottle at which growth was unimpeded ([8]; 571/573-BAL, processed in CB-18, then diluted): < 1 µg/mL
impact on growth characteristics ([8]; ATCC 27294, processed in CB-18 (383 μg/ml) and/or planted in CB-18 (17 μg/ml final), PANTA or P/caz): generally unaffected
post antibiotic effect ([8]; cells processed in CB-18 but planted in buffer): no post antibiotic effect; also recorded: no “post antibiotic effect”
effect on growth ([9]; 571/573-BAL, CB-18 alone 17 μg/ml): suppressed
effect on growth ([9]; ATCC 27294, CB-18 alone 17 μg/ml, absence of MgCl2): unaffected
effect on growth ([9]; ATCC 27294 and 571/573-BAL, CB-18 17 μg/ml with P/cax): synergistically deleterious
